Data set [1] is described as follows: Half life in human liver microsomes at 1 uM. The data set is classed as ADME, Microsome.
In data set [2] the target is CYP2C9 (Homo sapiens, UniProt P11712). Briefly: Inhibition of CYP2C9 at 3 uM. The data set is classed as ADME.
Data set [3] is described as follows: Half life in rat liver microsomes at 1 uM. The data set is classed as ADME, Microsome. Background: Liver microsomes are vesicles of endoplasmic reticulum, rich in cytochrome P450 enzymes.
Data set [4] in a line: Aqueous solubility at pH 7.4. The data set is classed as physicochemical.
Data set [5] in a line: Membrane permeability by PAMPA assay. The data set is classed as ADME. Particulars: read-out: permeability. For orientation: The PAMPA barrier holds no transporters, so it reflects passive diffusion.
Data set [6] concerns the target CYP3A4 (Homo sapiens, UniProt P08684). Briefly: Inhibition of CYP3A4 at 3 uM. The data set is classed as ADME.
The target in data set [7] is CYP2D6 (Homo sapiens, UniProt P10635). Briefly: Inhibition of CYP2D6 at 3 uM. The data set is classed as ADME.
Chain of CYP2D6 (P10635 whole entry): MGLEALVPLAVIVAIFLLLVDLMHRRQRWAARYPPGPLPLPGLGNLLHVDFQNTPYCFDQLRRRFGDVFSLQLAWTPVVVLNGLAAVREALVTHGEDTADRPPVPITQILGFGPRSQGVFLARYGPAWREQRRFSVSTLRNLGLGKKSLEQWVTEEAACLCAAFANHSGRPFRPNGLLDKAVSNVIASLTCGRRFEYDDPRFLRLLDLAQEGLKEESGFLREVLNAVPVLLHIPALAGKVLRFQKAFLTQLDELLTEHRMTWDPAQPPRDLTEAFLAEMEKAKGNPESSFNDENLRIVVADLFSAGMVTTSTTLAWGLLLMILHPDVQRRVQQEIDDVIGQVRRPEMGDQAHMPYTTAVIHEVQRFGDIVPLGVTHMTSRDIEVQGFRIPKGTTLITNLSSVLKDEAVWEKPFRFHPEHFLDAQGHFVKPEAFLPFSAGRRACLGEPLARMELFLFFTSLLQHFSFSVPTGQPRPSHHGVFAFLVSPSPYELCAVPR
The nature of data set [8]: Half life in dog liver microsomes at 1 uM. The data set is classed as ADME, Canis lupus familiaris, Microsome.
The target in data set [9] is Sodium-dependent serotonin transporter (Homo sapiens, UniProt P31645). The data set is classed as cell-based, JAR.
Chain of Sodium-dependent serotonin transporter (P31645 whole entry): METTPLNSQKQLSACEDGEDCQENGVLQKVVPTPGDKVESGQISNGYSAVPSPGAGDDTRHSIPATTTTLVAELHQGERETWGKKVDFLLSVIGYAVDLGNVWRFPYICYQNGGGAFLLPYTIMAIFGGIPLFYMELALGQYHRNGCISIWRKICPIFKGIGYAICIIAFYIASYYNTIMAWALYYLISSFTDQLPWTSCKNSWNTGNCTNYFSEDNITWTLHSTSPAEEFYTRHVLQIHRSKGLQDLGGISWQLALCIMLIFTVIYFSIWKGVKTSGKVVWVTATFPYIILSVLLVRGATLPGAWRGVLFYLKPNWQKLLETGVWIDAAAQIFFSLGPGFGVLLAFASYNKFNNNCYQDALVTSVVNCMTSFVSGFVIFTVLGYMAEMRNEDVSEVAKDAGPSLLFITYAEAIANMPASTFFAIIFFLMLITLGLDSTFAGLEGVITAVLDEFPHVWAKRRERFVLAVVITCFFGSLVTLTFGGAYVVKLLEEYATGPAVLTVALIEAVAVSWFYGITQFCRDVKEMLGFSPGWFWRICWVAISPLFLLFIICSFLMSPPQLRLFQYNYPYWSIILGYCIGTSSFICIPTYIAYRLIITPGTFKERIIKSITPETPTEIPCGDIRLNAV
Description: Inhibition of serotonin uptake at human SERT expressed in JAR cells
Data set [10] can be described thus: Half life in monkey liver microsomes at 1 uM. The data set is classed as ADME, Macaca mulatta, Microsome. Particulars: rhesus monkey.
In data set [11] the target is Sodium-dependent dopamine transporter (Homo sapiens) (UniProt Q01959). Briefly: Displacement of [3H]WIN-35428 from human recombinant DAT expressed in CHO cells at 1 uM. The data set is classed as cell-based. Background: Loss of bound radioactivity is the signal in a displacement assay; it reports binding, not function.
Chain of Sodium-dependent dopamine transporter (Homo sapiens) (Q01959 whole entry): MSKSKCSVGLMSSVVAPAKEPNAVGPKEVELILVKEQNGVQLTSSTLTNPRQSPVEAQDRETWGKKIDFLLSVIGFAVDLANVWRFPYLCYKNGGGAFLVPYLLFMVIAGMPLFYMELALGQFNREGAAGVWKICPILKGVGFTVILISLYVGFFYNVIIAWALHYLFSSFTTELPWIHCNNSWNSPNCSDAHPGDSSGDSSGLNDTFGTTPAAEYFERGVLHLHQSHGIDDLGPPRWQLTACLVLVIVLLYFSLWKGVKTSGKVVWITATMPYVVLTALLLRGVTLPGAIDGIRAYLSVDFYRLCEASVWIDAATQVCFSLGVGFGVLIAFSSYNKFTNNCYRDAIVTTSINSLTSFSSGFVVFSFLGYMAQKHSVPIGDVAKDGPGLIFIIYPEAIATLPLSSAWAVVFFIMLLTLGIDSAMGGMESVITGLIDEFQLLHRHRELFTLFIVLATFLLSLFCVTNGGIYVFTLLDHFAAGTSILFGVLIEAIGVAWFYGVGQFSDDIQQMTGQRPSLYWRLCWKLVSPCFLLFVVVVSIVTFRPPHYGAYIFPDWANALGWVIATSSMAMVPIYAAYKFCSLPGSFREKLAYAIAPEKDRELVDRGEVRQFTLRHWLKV
The target in data set [12] is T1, 5-hydroxytryptamine receptor 1A (Homo sapiens) (UniProt P08908).
T1 sequence (whole entry): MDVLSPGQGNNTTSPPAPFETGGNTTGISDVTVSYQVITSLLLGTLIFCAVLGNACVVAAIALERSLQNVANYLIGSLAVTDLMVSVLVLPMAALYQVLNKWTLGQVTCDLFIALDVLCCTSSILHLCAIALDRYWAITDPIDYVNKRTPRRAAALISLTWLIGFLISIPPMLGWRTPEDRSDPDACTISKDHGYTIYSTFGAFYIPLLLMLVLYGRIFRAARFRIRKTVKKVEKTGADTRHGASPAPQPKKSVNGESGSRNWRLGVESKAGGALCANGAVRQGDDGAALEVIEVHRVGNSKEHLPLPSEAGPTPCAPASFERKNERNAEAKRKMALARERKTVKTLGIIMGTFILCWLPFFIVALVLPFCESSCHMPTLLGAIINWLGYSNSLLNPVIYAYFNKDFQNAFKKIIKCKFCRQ
Briefly: Binding affinity to 5-HT1A receptor.

Data set [13] can be described thus: Binding affinity to alpha1 adrenergic receptor.
The target of data set [14] is 5-hydroxytryptamine receptor 2A (Homo sapiens) (UniProt P28223). Briefly: Binding affinity to 5-HT2A receptor.
Chain of 5-hydroxytryptamine receptor 2A (Homo sapiens) (P28223 whole entry): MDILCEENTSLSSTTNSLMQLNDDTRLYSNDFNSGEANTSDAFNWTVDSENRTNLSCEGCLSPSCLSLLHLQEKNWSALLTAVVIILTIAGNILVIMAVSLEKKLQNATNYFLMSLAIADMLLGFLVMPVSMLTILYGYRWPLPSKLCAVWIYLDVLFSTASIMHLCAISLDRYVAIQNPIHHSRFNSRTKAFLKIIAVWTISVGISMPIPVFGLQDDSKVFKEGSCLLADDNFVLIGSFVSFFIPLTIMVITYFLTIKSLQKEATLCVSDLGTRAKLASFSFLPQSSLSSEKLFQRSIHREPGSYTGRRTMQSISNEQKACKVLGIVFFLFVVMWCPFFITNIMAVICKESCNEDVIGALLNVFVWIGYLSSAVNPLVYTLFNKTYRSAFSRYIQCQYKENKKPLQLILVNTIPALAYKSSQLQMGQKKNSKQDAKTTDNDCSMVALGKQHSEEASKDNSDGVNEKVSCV
The nature of data set [15]: Binding affinity to alpha2 adrenergic receptor.
Data set [16] concerns MDCK-Net6. Put plainly: Selectivity index, ratio of IC50 for human SERT to IC50 for human NET uptake in MDCK-Net6 cell. The data set is classed as cell-based.
Data set [17] concerns the target T2, Sodium-dependent noradrenaline transporter (Homo sapiens, UniProt P23975).
The target of data set [18] is T2, Sodium-dependent noradrenaline transporter. Briefly: Inhibition of norepinephrine reuptake at human NET expressed in MDCK-Net6 cells at 1000 nM. The data set is classed as cell-based.

Activity calls are given as the source filed them. No cut-off for these calls is given here. Where only a bound is given, the exact number is not on record here.

T2 sequence (P23975 whole entry): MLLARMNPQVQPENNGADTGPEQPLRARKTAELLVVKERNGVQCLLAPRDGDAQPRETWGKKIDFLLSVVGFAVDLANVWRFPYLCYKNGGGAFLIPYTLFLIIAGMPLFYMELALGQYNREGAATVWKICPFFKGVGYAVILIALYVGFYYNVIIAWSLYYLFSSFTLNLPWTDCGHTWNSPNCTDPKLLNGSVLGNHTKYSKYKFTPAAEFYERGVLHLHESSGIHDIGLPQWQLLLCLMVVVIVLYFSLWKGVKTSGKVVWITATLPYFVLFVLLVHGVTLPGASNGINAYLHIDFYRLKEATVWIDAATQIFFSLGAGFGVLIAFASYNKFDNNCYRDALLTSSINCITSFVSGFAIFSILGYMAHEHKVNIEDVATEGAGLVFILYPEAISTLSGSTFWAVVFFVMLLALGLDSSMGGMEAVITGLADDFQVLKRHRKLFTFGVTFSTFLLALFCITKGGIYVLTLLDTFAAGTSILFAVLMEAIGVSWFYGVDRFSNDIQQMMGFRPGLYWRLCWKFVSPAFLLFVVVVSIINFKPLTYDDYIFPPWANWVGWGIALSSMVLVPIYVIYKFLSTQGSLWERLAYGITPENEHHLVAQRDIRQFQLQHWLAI
Chain of CYP3A4 (P08684 whole entry): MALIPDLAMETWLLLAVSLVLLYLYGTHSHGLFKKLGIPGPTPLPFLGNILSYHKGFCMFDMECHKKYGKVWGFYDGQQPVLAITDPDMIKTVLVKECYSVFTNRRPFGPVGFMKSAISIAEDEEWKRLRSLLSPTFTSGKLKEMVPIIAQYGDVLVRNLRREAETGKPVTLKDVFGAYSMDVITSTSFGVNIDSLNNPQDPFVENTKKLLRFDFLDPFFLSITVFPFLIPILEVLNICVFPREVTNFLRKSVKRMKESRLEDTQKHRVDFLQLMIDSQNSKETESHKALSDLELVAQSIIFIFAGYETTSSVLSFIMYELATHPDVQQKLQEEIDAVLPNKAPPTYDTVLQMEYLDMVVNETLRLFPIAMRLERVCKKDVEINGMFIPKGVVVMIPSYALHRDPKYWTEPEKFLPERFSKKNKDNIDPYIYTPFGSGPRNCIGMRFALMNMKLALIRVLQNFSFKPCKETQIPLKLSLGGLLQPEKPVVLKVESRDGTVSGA
Chain of CYP2C9 (P11712 whole entry): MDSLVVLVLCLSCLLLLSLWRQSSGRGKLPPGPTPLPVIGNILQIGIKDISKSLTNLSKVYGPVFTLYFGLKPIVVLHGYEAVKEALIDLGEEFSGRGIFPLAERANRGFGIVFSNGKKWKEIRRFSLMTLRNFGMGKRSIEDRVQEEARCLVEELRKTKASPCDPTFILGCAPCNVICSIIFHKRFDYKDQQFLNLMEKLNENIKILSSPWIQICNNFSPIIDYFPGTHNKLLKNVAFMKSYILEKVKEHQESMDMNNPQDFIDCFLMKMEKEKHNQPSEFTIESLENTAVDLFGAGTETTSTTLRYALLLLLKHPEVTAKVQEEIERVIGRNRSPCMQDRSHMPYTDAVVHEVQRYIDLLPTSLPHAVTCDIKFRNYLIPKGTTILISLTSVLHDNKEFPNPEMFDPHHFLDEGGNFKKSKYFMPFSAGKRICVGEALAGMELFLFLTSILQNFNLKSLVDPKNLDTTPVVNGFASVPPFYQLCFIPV

By half-life is commonly meant how long it takes for the measured level to halve. A word on the inhibition: it is the relative decrease from the control value, in per cent. By solubility is commonly meant the concentration that dissolves in the medium under given conditions. The IC50 is the concentration at which inhibition is half-maximal. `CNC[C@@H](O)[C@H](c1ccccc1)n1ccc2ccccc21` [listing 1 of 2 here]: the half-life at 1 µM is above 60 min in [1], 9.8 min in [3], 15.9 min in [8] and 9.7 min in data set [10]. Further, the inhibition at 3 µM in data set [2], in data set [6] and in [7] was below 20% throughout. Also, in [4], the solubility was above 50 µg/mL. Also, the Papp in data set [5] came out at 4.6 ×10⁻⁶ cm/s. The compound further came in with an IC50 in [9] of 358 nM.
Take `CNC[C@@H](O)[C@@H](c1ccccc1)n1ccc2ccccc21`: inhibition in [9] was half-maximal at 161 nM (IC50). Besides, the inhibition in data set [11] was 31%.
`CNC[C@H](O)[C@@H](c1ccccc1)n1ccc2ccccc21` [listing 1 of 2 here] yielded an IC50 in data set [9] of 144 nM.
As to `CNC[C@H](O)[C@H](c1ccccc1)n1ccc2ccccc21`, the IC50 in [9] is 918 nM. For the same compound, in [11], the inhibition was 0%.
For the compound `CNC[C@@H](O)[C@H](c1ccccc1)n1ccc2ccccc21` [listing 2 of 2 here], the result in data set [12], in data set [13], in [14] and in data set [15] was inactive. The inhibition in data set [11] was determined as 19%.
As for `CNC[C@H](O)[C@@H](c1ccccc1)n1ccc2ccccc21` [listing 2 of 2 here], the inhibition in [11] is 18%.
Still for that read-out and setting: in the case of `OC1(c2ccc(Cl)cc2)c2ccccc2C2=NCCN21` (stereo not given) it was 22.1%.
In the case of `CCNC[C@H](O)[C@H](c1ccccc1)n1ccc2ccccc21` (racemic), the Ratio IC50 in data set [16] was found to be 0.2. Besides, the figures for the IC50 in data set [17] and in data set [9] were 1200 nM and 298 nM, respectively.
The matching figures for `CNC[C@H](O)[C@H](c1ccccc1)n1ccc2cc(Cl)ccc21` (racemic): 0.2, 49 nM and 10 nM.
The matching figures for `CNC[C@H](O)[C@H](c1ccccc1)n1ccc2cc(F)ccc21` (racemic): 1, 118 nM and 95 nM.
Compound `O[C@@H](CNCC1CCCCC1)[C@H](c1ccccc1)n1ccc2ccccc21` (racemic) gave an IC50 in data set [9] of 2830 nM. In [18], this compound had an inhibition of 41%.
`CNC[C@H](O)[C@H](c1ccccc1)n1ccc2cc(OC)ccc21` (racemic): the Ratio IC50 in [16] was 0.1. The results for the IC50 in data set [17] and in data set [9] were 230 nM and 31 nM, respectively. In addition, the inhibition in [11] was 2%.
The matching figures for `CCNC[C@H](O)[C@H](c1ccccc1)n1cc(C)c2ccccc21` (racemic): 2, 1100 nM, 2200 nM and 0%.
The like results for `Cc1cn([C@@H](c2ccccc2)[C@@H](O)CN)c2ccccc12` (racemic) were, in that order, 1, 321 nM, 299 nM and 6%.
In the case of `NC[C@H](O)[C@H](c1ccccc1)n1ccc2ccccc21` (racemic), the Ratio IC50 in [16] is 0.1. Further, half-maximal inhibition in data set [9] (IC50) was put at 50 nM. The inhibition in [11] came to 7%.
Compound `CNC[C@H](O)[C@H](c1ccccc1)n1cc(C)c2ccccc21` (racemic) came in with an IC50 in data set [9] of 251 nM. For the same compound, the inhibition in data set [11] stood at 0%.
With `CC(C)NC[C@H](O)[C@H](c1ccccc1)n1ccc2ccccc21` (racemic), the inhibition in data set [18] came out at 13%.
Still for that read-out and setting: in the case of `CCN(C)C[C@H](O)[C@H](c1ccccc1)n1ccc2ccccc21` (racemic) it was 38%.
Same read-out and setting: in the case of `CCNC[C@H](O)[C@H](c1ccccc1)n1ccc2cc(F)ccc21` (racemic) it was 11%; in that of `CN(C)C[C@H](O)[C@H](c1ccccc1)n1ccc2ccccc21` (racemic), 25%; in that of `CN1CCN(C[C@H](O)[C@H](c2ccccc2)n2ccc3ccccc32)CC1` (racemic), 5%.
Compound `CNC[C@H](O)[C@H](c1ccccc1)n1c(C)cc2ccccc21` (racemic) showed an inhibition in data set [18] of 45%.
With `NC[C@H](O)[C@H](c1ccccc1)n1ccc2cc(F)ccc21` (racemic), the inhibition in data set [18] was determined as 32%.
The same measure, in the same setting: in the case of `O[C@@H](CN1CCNCC1)[C@H](c1ccccc1)n1ccc2ccccc21` (racemic) it was 34%.
As for `O[C@@H](CN1CCOCC1)[C@H](c1ccccc1)n1ccc2ccccc21` (racemic), the inhibition in [18] came to 18%.
Same read-out and setting: the figure for `O[C@@H](CNCc1ccccc1)[C@H](c1ccccc1)n1ccc2ccccc21` (racemic) is 26%; for `O[C@@H](CNCc1ccncc1)[C@H](c1ccccc1)n1ccc2ccccc21` (racemic) it is 24%.
As to `CNC[C@@H](O)[C@H](c1ccccc1)n1ccc2ccccc21` (stereo in doubt) [listing 1 of 2 here], the IC50 in [9] came to 126 nM.
Still for that read-out and setting: the figure for `CNC[C@H](O)[C@@H](c1ccccc1)n1ccc2ccccc21` (stereo in doubt) [listing 1 of 2 here] is 74 nM.
Take `CNC[C@@H](O)[C@H](c1ccccc1)n1ccc2ccccc21` (stereo in doubt) [listing 2 of 2 here]: the inhibition in [11] turned out to be 7%.
On the same count and under the same terms, in the case of `CNC[C@H](O)[C@@H](c1ccccc1)n1ccc2ccccc21` (stereo in doubt) [listing 2 of 2 here] it was 4%.

The values are drawn from ChEMBL document CHEMBL1155305, “Discovery of a new series of monoamine reuptake inhibitors, the 1-amino-3-(1H-indol-1-yl)-3-phenylpropan-2-ols” (Bioorg Med Chem Lett, 2009).
